The values that follow come from the supplement of paper PMC10949913.

SMILES strings stand for the structures.

Common to all, as to assay: area under concentration-response curve (viability) (AUC (a.u.)); higher = less active
Holding throughout (conditions): 48 h

One assay has as its system NCI-H295R. In a few lines:
(§1)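 Concentration-response curves were fitted to obtain AC50 and area under the curve, keeping inhibitory or non-responding curve classes only. Data came from CellTiter-Glo luminescence, normalised per plate to vehicle and empty-well controls, in three adrenocortical carcinoma cell lines. These were treated in 1,536-well plates with library compounds at 11 concentrations and read after 48 h.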

Another assay has as its system CU-ACC1. An outline of the steps:
as §1

For another assay, the system named is CU-ACC2. An outline of the steps: as §1

In the case of `CCCCn1c(=O)n(Cc2ccccc2F)c(=O)c2nc(Cc3ccc(NC(C)=O)cc3)[nH]c21`, the “area under concentration-response curve” value in the assay with NCI-H295R stood at 531; with CU-ACC1, 491; with CU-ACC2 it was 543.

For the molecule `CCOC(=O)[C@H]1O[C@@H]1C(=O)N[C@@H](CC(C)C)C(=O)NCCC(C)C`, the “area under concentration-response curve” value in the assay on NCI-H295R is 527; with CU-ACC1, 566; in the assay with CU-ACC2 it was 589.

On to `CNC(=O)c1c(C)oc2cc(Oc3ncnc4cc(OC)c(OC)cc34)ccc12`, for which the figures for the “area under concentration-response curve” value in the assay with NCI-H295R, in the assay on CU-ACC1 and in the assay with CU-ACC2 were 593, 535 and 624, respectively.

For the molecule `COc1ccc([C@@H](O)[C@@H](C)Oc2ccc([C@H]3O[C@H](c4ccc(O[C@H](C)[C@H](O)c5ccc(OC)c(OC)c5)c(OC)c4)[C@H](C)[C@H]3C)cc2OC)cc1OC`, the entries for the “area under concentration-response curve” value in the assay with NCI-H295R, in the assay on CU-ACC1 and with CU-ACC2 were 479, 269 and 575, respectively.

For the molecule `O=C1NC(=O)/C(=C/c2ccc3c(c2)OC(F)(F)O3)S1`, the “area under concentration-response curve” value with NCI-H295R came to 537; in the assay with CU-ACC1 it was 512; in the assay on CU-ACC2, 599.

Take `CCCCCCCCCCCC(CC1OC(=O)C1CCCCCC)OC(=O)C(CC(C)C)NC=O` (configuration not stated): the figures for the “area under concentration-response curve” value with NCI-H295R, with CU-ACC1 and in the assay with CU-ACC2 were 336, 474 and 517, respectively.

`CC(O)(C[S+](=O)([O-])c1ccc(F)cc1)C(=O)Nc1ccc(C#N)c(C(F)(F)F)c1` (configuration not stated): the “area under concentration-response curve” value stood at 447 in the assay on NCI-H295R, 454 in the assay on CU-ACC1 and 482 in the assay with CU-ACC2.

Regarding `CC1(C)S[C@H]2[C@H](NC(=O)[C@@H](N)c3ccc(O)cc3)C(=O)N2[C@H]1C(=O)O`, the results for the “area under concentration-response curve” value in the assay on NCI-H295R, in the assay on CU-ACC1 and in the assay with CU-ACC2 were 545, 511 and 597, respectively.

With `CC(C)(OCc1nn(Cc2ccccc2)c2ccccc12)C(=O)O`, the “area under concentration-response curve” value was 491 with NCI-H295R, 416 in the assay on CU-ACC1 and 460 in the assay with CU-ACC2.

Regarding `COc1ccc(Oc2cc(NCCC(F)(F)F)c3ncc(-c4ccc(C(=O)NC5CC5)c(C)c4)n3n2)c(F)c1F`, the “area under concentration-response curve” value in the assay with NCI-H295R stood at 501; in the assay on CU-ACC1, 487; in the assay with CU-ACC2, 459.

As to `COC1=CC=C2/C3=N/CCN3\C(=N/C2=C1OC)NC(=O)C4=CC=CN=C4`, the entries for the “area under concentration-response curve” value in the assay on NCI-H295R, with CU-ACC1 and with CU-ACC2 were 619, 662 and 698, respectively.

Consider `O=C(c1ccc(N[S+](=O)([O-])c2cccc3cccnc23)cc1)N1CCN(CC2CC2)CC1`, for which the “area under concentration-response curve” value in the assay with NCI-H295R stood at 527; in the assay on CU-ACC1 it was 485; in the assay with CU-ACC2 it was 486.

Turning to `CCn1c(-c2nonc2N)nc2cnc(Oc3cccc(NC(=O)c4ccc(OCCN5CCOCC5)cc4)c3)cc21`, the results for the “area under concentration-response curve” value in the assay on NCI-H295R, in the assay with CU-ACC1 and in the assay on CU-ACC2 were 511, 494 and 547, respectively.

Consider `CC12CC3CC(C)(C1)CC(N)(C3)C2`, for which the “area under concentration-response curve” value with NCI-H295R turned out to be 457; in the assay on CU-ACC1, 437; in the assay on CU-ACC2, 431.

In the case of `O=c1sn(-c2cccc3ccccc23)c(=O)n1Cc1ccccc1`, the “area under concentration-response curve” value in the assay on NCI-H295R stood at 433; in the assay on CU-ACC1 it was 462; in the assay with CU-ACC2 it was 501.

As to `C[S+](=O)([O-])N(Cc1ccco1)CC(O)Cn1c2ccccc2c2ccccc21` (configuration not stated), the “area under concentration-response curve” value with NCI-H295R was 473; with CU-ACC1, 477; in the assay with CU-ACC2, 515.

For the molecule `CC(C)OC(=O)/C1=C/N(CC(C)(C)C2=C1[NH]C3=CC=CC=C23)C(=O)C4=CC=C(F)C(=C4)F`, the “area under concentration-response curve” value is 529 in the assay with NCI-H295R, 454 in the assay with CU-ACC1 and 555 with CU-ACC2.

Regarding `CN1C(=O)[C@@H](NC(=O)[C@H](CCC(F)(F)F)[C@H](CCC(F)(F)F)C(N)=O)\N=C(C2=CC=CC=C2)/C3=CC=CC=C13`, the “area under concentration-response curve” value stood at 530 in the assay with NCI-H295R, 514 in the assay on CU-ACC1 and 610 in the assay on CU-ACC2.

On to `Cc1ccc([S+](=O)([O-])OCC(=O)Nc2ccc(C(=O)O)c(O)c2)cc1`, for which the “area under concentration-response curve” value in the assay with NCI-H295R is 546; with CU-ACC1, 543; with CU-ACC2 it was 589.

On to `Nc1nc(OC(c2ccc(-c3cccc(F)c3)cc2)C(F)(F)F)cc(-c2ccc(C[C@@H](N)C(=O)O)cc2)n1` (some centres not stated), for which the “area under concentration-response curve” value in the assay with NCI-H295R came to 449; in the assay with CU-ACC1, 464; with CU-ACC2, 488.

With `OC[C@H]1O[C@@H](S[C@@H]2O[C@H](CO)[C@H](O)[C@H](n3cc(-c4cccc(F)c4)nn3)[C@H]2O)[C@H](O)[C@@H](n2cc(-c3cccc(F)c3)nn2)[C@H]1O`, the “area under concentration-response curve” value amounted to 547 in the assay with NCI-H295R, 507 with CU-ACC1 and 590 with CU-ACC2.

Turning to `OC[C@H]1O[C@H]([C@H](O)[C@@H]1O)N2\C=C/C(=O)NC2=O`, the results for the “area under concentration-response curve” value in the assay with NCI-H295R, with CU-ACC1 and in the assay with CU-ACC2 were 502, 485 and 535, respectively.

On to `Cc1cccc(C)c1NC(=O)CN1CCCC1=O`, for which the “area under concentration-response curve” value with NCI-H295R came out at 520; in the assay on CU-ACC1 it was 486; in the assay on CU-ACC2 it was 544.

Regarding `COc1ccc(CC2c3cc(OC)c(OC)cc3CC[N+]2(C)CCC(=O)OCCCCCOC(=O)CC[N+]2(C)CCc3cc(OC)c(OC)cc3C2Cc2ccc(OC)c(OC)c2)cc1OC` (configuration not stated), the “area under concentration-response curve” value with NCI-H295R was 474; in the assay with CU-ACC1, 449; in the assay on CU-ACC2, 494.

As for `COC1=CC(=CC=C1)C2=CC=C(NC(=O)/C3=C(/CCC3)C(O)=O)C(=C2)F`, the “area under concentration-response curve” value with NCI-H295R was found to be 491; with CU-ACC1, 450; in the assay on CU-ACC2 it was 509.

As for `O=C1NNc2nc(CN3Cc4ccccc4C3)nc3cccc1c23`, the “area under concentration-response curve” value with NCI-H295R turned out to be 526; in the assay with CU-ACC1 it was 537; with CU-ACC2, 600.

In the case of `N[C@@H](Cc1cc(I)c(Oc2cc(I)c(O)c(I)c2)c(I)c1)C(=O)O`, the “area under concentration-response curve” value is 564 with NCI-H295R, 548 in the assay on CU-ACC1 and 620 in the assay on CU-ACC2.

As for `Cc1ccnc(N[S+](=O)([O-])c2ccc(NC(=O)Nc3ccc([S+](=O)([O-])Nc4nccc(C)n4)cc3)cc2)n1`, the “area under concentration-response curve” value in the assay with NCI-H295R worked out at 537; in the assay on CU-ACC1, 499; with CU-ACC2, 566.

On to `COC1=CC=C(Cl)C=C1\C2=C\C(=O)NC(=S)N2CC(N)=O`, for which the “area under concentration-response curve” value amounted to 556 in the assay on NCI-H295R, 448 in the assay on CU-ACC1 and 580 in the assay with CU-ACC2.

For `Cc1cccc(-c2nn3c(c2-c2ccnc4ccc(C(N)=O)cc24)CCC3)n1`, the “area under concentration-response curve” value came out at 575 in the assay on NCI-H295R, 546 in the assay with CU-ACC1 and 628 with CU-ACC2.

Consider `Nc1cccc2c1CN([C@H]1CCC(=O)NC1=O)C2=O`, for which the “area under concentration-response curve” value with NCI-H295R stood at 498; in the assay with CU-ACC1 it was 454; in the assay on CU-ACC2 it was 544.

For the molecule `CC1(C)O[C@@H]2C[C@H]3[C@@H]4C[C@H](F)\C5=C\C(=O)\C=C/[C@]5(C)[C@H]4[C@@H](O)C[C@]3(C)[C@@]2(O1)C(=O)CO`, the “area under concentration-response curve” value in the assay on NCI-H295R is 588; in the assay with CU-ACC1 it was 515; with CU-ACC2 it was 622.

On to `COc1cc([C@H]2Oc3cc([C@H]4Oc5cc(O)cc(O)c5C(=O)[C@@H]4O)ccc3O[C@@H]2CO)ccc1O`, for which the “area under concentration-response curve” value turned out to be 587 in the assay with NCI-H295R, 585 in the assay on CU-ACC1 and 632 with CU-ACC2.

`NC12CC3CC(CC(C3)C1)C2`: the “area under concentration-response curve” value with NCI-H295R worked out at 523; in the assay on CU-ACC1, 466; in the assay with CU-ACC2, 509.

`COc1ccc2c(c1)CC[C@@H](CN(C)CC(=O)O)[C@H]2c1ccccc1`: the “area under concentration-response curve” value with NCI-H295R was determined as 464; with CU-ACC1, 487; in the assay with CU-ACC2, 514.

For `O=P1(N(CCCl)CCCl)NCCCO1` (configuration not stated), the “area under concentration-response curve” value with NCI-H295R worked out at 526; with CU-ACC1, 534; in the assay with CU-ACC2 it was 578.

As for `O=[N+]([O-])c1cncn1CCN1CCOCC1`, the “area under concentration-response curve” value in the assay with NCI-H295R was 563; with CU-ACC1, 545; in the assay with CU-ACC2, 611.

In the case of `CC1C\2C(O)C3C(N(C)C)C(=O)\C(=C(O)/C3(O)C(=O)C2=C(O)/C4=C1C=CC=C4O)C(N)=O` (configuration not stated), the entries for the “area under concentration-response curve” value in the assay on NCI-H295R, in the assay on CU-ACC1 and in the assay with CU-ACC2 were 502, 473 and 573, respectively.

In the case of `CC(C)(C)c1cc(C(=O)O)c(NC(=O)Nc2ccc3[nH]ncc3c2)s1`, the “area under concentration-response curve” value stood at 582 with NCI-H295R, 551 with CU-ACC1 and 614 with CU-ACC2.
